According to article PMC11790708, “Clioquinol inhibits angiogenesis by promoting VEGFR2 degradation and synergizes with AKT inhibition to suppress triple-negative breast cancer vascularization” (Angiogenesis, 2025):
pIC50: −log10 of the molar value.

Biological target: T1, VEGFR2 (Homo sapiens, UniProt P35968)
T1 construct: gene KDR; recombinant VEGFR2 (amino acids 789 to end)
Experiment: cell-free ADP-Glo kinase assay at […] ATP, with ATP competition at […] ATP
Format: biochemical

T1 sequence (P35968 789-1356): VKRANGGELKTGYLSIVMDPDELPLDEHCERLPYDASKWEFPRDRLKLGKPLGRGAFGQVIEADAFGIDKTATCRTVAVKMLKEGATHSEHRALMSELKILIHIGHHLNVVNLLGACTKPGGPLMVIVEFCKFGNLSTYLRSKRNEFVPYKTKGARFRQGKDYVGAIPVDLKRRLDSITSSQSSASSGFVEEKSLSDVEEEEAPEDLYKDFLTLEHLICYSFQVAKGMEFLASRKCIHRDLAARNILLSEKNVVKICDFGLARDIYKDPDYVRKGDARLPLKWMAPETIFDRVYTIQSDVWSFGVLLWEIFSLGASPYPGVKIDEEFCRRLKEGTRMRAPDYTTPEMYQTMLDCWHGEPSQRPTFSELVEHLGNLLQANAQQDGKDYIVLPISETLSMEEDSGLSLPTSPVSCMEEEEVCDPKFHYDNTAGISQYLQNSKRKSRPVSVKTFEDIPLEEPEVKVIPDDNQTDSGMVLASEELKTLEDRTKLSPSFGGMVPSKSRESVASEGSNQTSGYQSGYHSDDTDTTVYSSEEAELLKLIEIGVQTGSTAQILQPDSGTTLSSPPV

Question: How did the pIC50 turn out when Oc1c(I)cc(Cl)c2cccnc12 [clioquinol] was run?
Answer: 4.46
